Assay results: paper PMC7316778 (Nature Communications, 2020)
“And” between values parts separate entries of the source, which are not always exact repeats. Equal values may be shown once. Read-outs that look alike come from different tables or passages of the source.

What was measured:
[1] = target: CDK5/p25 (Homo sapiens, UniProt Q00535); assay: SelectScreen kinase assay; conditions: 1 h, 1 μM WEL028, 1 h preincubation
Procedure: (§1) Selectivity profiling assays were performed by the Invitrogen SelectScreen™ Services. […] The concentration of ATP was selected to be equal to the KM, unless indicated otherwise.

[2] = target: DAPK1 (Homo sapiens, UniProt P53355); assay: SelectScreen kinase assay
Procedure: as §1

[3] = target: FYN (Homo sapiens, UniProt P06241); assay: SelectScreen kinase assay
Procedure: as §1

[4] = target: KIT (Homo sapiens, UniProt P10721); assay: SelectScreen kinase assay
Procedure: as §1

[5] = target: MAP3K11 (MLK3) (Homo sapiens, UniProt Q16584); assay: SelectScreen kinase assay
Procedure: as §1

[6] = target: PDGFRA (PDGFR alpha) (Homo sapiens, UniProt P16234); assay: SelectScreen kinase assay
Procedure: as §1

[7] = target: PI4KB (PI4K beta) (Homo sapiens, UniProt Q9UBF8); assay: SelectScreen kinase assay
Procedure: as §1

[8] = target: T1, SGK (SGK1) (Homo sapiens, UniProt O00141); assay: SelectScreen kinase assay
T1 sequence (O00141 1-431): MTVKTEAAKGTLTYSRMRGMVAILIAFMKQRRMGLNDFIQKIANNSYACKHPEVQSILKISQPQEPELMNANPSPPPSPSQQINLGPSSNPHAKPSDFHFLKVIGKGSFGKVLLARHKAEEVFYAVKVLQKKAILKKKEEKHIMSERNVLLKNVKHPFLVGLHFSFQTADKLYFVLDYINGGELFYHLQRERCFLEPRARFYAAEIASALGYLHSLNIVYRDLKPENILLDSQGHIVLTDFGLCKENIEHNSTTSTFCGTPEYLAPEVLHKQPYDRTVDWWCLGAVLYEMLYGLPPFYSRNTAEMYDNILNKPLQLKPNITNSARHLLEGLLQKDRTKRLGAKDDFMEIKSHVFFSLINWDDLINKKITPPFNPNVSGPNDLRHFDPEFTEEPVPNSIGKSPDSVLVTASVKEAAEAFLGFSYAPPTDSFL
Procedure: as §1

[9] = target: SRMS (Srm) (Homo sapiens, UniProt Q9H3Y6); assay: SelectScreen kinase assay
Procedure: as §1

[10] = target: T2, ULK1 (Homo sapiens, UniProt O75385); assay: SelectScreen kinase assay
T2 sequence (O75385 1-1050): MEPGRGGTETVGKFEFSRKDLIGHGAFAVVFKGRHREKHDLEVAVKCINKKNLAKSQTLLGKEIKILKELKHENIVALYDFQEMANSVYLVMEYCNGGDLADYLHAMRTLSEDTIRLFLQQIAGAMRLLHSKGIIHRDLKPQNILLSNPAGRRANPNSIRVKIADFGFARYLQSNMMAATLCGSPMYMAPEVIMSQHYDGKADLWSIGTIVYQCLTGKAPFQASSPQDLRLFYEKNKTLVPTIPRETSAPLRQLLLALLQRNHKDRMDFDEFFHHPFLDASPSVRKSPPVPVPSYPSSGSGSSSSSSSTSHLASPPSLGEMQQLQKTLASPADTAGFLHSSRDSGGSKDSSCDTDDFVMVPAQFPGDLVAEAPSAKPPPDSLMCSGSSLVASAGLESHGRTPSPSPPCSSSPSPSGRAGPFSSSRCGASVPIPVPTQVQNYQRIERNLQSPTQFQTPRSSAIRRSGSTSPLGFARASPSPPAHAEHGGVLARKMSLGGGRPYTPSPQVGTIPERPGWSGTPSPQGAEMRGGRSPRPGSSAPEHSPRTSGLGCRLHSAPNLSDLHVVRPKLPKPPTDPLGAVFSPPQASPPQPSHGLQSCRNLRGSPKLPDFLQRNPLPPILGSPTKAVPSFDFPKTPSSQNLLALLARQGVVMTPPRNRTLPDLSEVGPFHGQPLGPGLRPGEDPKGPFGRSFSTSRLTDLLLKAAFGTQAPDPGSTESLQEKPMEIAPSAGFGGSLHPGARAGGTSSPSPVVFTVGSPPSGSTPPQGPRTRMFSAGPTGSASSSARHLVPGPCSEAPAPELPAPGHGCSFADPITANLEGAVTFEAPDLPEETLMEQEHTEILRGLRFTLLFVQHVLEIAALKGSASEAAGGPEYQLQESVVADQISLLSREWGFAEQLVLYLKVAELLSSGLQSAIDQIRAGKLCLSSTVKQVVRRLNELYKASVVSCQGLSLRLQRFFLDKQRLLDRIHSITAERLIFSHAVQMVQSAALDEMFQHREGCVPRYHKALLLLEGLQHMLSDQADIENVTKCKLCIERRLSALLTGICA
Procedure: as §1

[11] = target: T3, FES^S700C (Homo sapiens, UniProt P07332, S700C); assay: Time-dependent probe displacement by WEL033 in lysate
[12] = target: T3, FES^S700C; assay: In vitro TR-FRET kinase assay; type: biochemical; set-up: human FES cDNA encoding residues 448–822 or human FER cDNA encoding residues 448–820 was amplified by PCR; made in house; host or cells: E. coli BL21(DE3), co-expressing YopH phosphatase; conditions: IC50 on FES^WT divided by IC50 on FES^S700C
[13] = 1 h, 1 μM WEL028, 1 h preincubation
[14] = 1 µM, ZLYTE, ATP Km app, listed as WEL028, 1 µM
[15] = read-out: Inhibition at 1 µM (%), 1 µM, ZLYTE, ATP Km app

PI4KB (PI4K beta), sequence (Q9UBF8 whole entry): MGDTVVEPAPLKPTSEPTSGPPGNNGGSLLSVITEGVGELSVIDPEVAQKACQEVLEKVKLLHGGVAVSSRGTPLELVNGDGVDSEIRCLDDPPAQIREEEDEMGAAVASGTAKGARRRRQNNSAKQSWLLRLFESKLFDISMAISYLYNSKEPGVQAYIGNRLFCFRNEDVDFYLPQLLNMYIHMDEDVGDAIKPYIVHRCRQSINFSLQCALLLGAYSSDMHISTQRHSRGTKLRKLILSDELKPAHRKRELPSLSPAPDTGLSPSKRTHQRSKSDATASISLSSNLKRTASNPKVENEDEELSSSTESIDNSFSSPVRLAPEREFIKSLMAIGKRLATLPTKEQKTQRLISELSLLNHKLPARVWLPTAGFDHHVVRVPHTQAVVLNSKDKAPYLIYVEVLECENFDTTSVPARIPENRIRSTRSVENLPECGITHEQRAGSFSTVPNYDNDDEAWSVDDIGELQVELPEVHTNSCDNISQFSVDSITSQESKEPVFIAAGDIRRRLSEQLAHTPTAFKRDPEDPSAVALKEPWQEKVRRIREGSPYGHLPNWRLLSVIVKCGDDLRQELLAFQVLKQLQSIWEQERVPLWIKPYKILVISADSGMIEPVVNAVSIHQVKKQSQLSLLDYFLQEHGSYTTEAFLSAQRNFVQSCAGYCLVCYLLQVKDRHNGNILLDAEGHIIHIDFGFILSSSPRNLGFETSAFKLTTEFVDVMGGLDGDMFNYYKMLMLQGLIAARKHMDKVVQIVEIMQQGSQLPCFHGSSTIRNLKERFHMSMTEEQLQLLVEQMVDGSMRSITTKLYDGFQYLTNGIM
DAPK1, sequence (P53355 whole entry): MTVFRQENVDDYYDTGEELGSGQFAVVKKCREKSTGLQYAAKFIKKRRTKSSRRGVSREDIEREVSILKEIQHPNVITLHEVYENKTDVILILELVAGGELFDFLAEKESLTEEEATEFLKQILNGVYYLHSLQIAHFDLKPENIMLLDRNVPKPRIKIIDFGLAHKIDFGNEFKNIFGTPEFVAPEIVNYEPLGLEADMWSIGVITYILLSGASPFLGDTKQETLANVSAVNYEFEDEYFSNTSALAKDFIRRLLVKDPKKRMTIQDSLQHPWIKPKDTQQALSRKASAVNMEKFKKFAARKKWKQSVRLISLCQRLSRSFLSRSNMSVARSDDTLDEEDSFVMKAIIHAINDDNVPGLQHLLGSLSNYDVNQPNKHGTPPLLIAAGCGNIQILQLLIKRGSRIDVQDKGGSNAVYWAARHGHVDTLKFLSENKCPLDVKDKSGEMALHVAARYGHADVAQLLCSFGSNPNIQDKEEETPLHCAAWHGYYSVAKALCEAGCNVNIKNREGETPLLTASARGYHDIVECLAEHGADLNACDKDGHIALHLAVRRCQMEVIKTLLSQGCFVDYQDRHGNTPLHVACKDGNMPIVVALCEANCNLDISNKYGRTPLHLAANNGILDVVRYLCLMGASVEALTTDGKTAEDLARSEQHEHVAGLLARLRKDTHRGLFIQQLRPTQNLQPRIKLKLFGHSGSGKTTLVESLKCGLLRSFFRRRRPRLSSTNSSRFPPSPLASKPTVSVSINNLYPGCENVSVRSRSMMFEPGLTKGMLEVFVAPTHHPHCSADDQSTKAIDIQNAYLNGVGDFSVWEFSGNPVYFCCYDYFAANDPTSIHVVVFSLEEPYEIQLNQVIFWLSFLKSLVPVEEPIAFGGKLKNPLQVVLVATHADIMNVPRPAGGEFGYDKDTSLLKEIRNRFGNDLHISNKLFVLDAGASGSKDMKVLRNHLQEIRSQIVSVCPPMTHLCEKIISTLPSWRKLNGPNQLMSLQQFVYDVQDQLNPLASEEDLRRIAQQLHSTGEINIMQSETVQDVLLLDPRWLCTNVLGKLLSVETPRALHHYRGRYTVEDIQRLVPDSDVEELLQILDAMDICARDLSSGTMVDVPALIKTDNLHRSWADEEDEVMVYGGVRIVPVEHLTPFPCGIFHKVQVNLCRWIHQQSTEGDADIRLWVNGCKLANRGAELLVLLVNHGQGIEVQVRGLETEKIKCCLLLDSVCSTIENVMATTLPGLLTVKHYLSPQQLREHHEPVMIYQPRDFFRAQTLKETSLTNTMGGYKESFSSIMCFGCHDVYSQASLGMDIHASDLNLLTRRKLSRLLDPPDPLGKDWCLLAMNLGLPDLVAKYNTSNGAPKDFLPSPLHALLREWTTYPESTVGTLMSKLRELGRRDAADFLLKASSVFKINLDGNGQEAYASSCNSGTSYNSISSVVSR
FYN, sequence (P06241 whole entry): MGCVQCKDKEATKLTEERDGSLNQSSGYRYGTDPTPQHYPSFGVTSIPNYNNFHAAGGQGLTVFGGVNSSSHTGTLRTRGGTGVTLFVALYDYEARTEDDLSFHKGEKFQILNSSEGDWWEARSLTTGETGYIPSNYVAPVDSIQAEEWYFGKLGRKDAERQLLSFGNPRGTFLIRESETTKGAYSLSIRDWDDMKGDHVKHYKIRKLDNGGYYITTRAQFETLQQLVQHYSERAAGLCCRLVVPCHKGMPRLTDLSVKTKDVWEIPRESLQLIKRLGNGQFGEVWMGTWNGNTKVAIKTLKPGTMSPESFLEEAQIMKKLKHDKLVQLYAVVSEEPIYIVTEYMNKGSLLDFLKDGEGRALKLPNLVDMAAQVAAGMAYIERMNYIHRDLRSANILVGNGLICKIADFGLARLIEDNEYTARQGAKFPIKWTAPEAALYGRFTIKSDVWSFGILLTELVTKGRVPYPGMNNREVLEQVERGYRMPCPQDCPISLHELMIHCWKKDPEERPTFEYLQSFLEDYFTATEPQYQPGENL
KIT, sequence (P10721 26-976): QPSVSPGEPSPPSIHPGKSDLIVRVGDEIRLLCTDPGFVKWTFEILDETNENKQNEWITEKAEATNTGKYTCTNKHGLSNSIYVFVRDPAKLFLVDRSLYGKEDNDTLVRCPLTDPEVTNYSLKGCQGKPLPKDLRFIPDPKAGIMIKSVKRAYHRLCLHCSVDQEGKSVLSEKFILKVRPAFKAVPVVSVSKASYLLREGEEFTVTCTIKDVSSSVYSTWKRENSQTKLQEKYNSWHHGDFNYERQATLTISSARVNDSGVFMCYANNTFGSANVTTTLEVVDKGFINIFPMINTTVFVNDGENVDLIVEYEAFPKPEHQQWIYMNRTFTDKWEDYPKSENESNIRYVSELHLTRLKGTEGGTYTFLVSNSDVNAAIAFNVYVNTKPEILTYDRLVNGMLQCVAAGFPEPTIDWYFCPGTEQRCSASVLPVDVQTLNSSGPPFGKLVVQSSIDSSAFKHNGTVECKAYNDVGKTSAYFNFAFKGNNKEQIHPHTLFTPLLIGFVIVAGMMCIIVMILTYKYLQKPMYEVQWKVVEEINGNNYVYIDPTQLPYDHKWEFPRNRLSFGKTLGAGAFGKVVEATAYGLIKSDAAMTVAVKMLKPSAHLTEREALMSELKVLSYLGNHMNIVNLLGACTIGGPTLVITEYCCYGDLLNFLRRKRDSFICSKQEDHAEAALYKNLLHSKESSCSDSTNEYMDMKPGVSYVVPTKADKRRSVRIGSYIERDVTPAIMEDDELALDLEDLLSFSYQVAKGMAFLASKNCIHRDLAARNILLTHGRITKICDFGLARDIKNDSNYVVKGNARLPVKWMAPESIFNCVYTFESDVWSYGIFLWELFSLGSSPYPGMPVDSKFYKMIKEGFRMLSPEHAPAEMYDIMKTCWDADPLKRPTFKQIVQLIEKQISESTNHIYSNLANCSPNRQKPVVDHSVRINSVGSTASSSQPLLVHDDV
PDGFRA (PDGFR alpha), sequence (P16234 24-1089, species assumed): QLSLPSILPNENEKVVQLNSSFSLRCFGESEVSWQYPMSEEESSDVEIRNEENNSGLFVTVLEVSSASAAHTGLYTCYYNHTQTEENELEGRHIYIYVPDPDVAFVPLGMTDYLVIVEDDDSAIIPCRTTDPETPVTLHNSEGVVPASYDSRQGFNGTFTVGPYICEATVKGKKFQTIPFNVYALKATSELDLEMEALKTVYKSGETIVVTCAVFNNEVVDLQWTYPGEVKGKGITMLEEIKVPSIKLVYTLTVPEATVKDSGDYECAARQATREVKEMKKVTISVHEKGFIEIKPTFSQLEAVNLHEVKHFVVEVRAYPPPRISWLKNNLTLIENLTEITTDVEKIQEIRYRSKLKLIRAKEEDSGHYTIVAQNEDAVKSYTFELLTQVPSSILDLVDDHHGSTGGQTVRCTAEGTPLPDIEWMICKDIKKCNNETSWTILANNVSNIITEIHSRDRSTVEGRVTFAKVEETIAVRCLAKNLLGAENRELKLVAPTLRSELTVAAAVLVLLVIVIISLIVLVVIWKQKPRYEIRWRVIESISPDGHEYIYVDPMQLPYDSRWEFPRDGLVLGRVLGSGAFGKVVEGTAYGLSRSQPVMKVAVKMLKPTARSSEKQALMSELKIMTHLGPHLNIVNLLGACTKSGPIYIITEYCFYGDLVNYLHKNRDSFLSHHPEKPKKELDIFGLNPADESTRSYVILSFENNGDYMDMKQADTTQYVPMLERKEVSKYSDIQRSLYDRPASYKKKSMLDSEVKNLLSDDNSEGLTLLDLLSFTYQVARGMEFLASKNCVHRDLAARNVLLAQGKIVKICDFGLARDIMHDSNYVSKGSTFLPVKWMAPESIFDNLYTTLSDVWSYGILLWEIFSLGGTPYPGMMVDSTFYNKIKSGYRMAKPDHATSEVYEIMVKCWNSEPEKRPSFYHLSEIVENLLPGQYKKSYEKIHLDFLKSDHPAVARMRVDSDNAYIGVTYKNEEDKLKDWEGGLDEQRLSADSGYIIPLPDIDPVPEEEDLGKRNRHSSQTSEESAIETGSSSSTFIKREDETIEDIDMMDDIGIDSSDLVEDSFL

`C#CCOc1ccc(Nc2ncc(Cl)c(Nc3ccccc3NC(=O)C=C)n2)c(OC)c1` [Compound 6] was tested, and the inhibition at 1 µM [1] was 2%, the inhibition at 1 µM [2, 13] was 12% and the “Inhibition at 1 µM (%)” value ([2]; DAPK1, 1 µM, Adapta, ATP Km app, listed as WEL028, 1 µM) was 13%. The inhibition at 1 µM ([2]; read-out: Inhibition at 1 µM (%), DAPK1, 1 µM, Adapta, ATP Km app) was 12%, the inhibition at 1 µM [3, 13] was 4% and the “Inhibition at 1 µM (%)” value ([3]; FYN, 1 µM, ZLYTE, ATP Km app, listed as WEL028, 1 µM) was 0% and 8%. The inhibition at 1 µM [4, 13] was 18%, the “Inhibition at 1 µM (%)” value ([4]; KIT, 1 µM, ZLYTE, ATP Km app, listed as WEL028, 1 µM) was 16% and the inhibition at 1 µM ([4]; read-out: Inhibition at 1 µM (%), KIT, 1 µM, ZLYTE, ATP Km app) was 21%. The “Inhibition at 1 µM (%)” value ([5]; MAP3K11 (MLK3), LanthaScreen Binding, listed as WEL028, 1 µM) was 6%, the inhibition at 1 µM ([5]; read-out: Inhibition at 1 µM (%), MAP3K11 (MLK3), LanthaScreen Binding) was 7% and the IC50 [6] was 794 nM. For the same molecule, the inhibition at 1 µM [6, 13] was 63%, the inhibition at 10 µM ([6]; 1 h, log[inhibitor] (M) -5.00, ZLYTE, ATP Km app) was 90% and the inhibition at 3.31 µM ([6]; 1 h, log[inhibitor] (M) -5.48, ZLYTE, ATP Km app) was 93%. For the same molecule, the inhibition at 1.12 µM ([6]; 1 h, log[inhibitor] (M) -5.95, ZLYTE, ATP Km app) was 61%, the inhibition at 0.372 µM ([6]; 1 h, log[inhibitor] (M) -6.43, ZLYTE, ATP Km app) was 22% and the inhibition at 0.123 µM ([6]; 1 h, log[inhibitor] (M) -6.91, ZLYTE, ATP Km app) was 7%. For the same molecule, the Apparent fold selectivity ([6]; IC50 on that kinase divided by IC50 on FES^S700C) was 184 fold, the “Inhibition at 1 µM (%)” value ([6]; PDGFRA (PDGFR alpha), 1 µM, ZLYTE, ATP Km app, listed as WEL028, 1 µM) was 58% and the inhibition at 1 µM ([6]; read-out: Inhibition at 1 µM (%), PDGFRA (PDGFR alpha), 1 µM, ZLYTE, ATP Km app) was 68%. The inhibition at 1 µM [7, 13] was 34%, the “Inhibition at 1 µM (%)” value ([7]; PI4KB (PI4K beta), 1 µM, Adapta, ATP Km app, listed as WEL028, 1 µM) was 37% and the inhibition at 1 µM ([7]; read-out: Inhibition at 1 µM (%), PI4KB (PI4K beta), 1 µM, Adapta, ATP Km app) was 30%. For the same molecule, the “Inhibition at 1 µM (%)” value [8, 14] was 9%, the inhibition at 1 µM [8, 13] was 10% and the inhibition at 1 µM [8, 15] was 10%. For the same molecule, the “Inhibition at 1 µM (%)” value [9, 14] was 8%, the inhibition at 1 µM [9, 13] was 7% and the inhibition at 1 µM [9, 15] was 6%. For the same molecule, the “Inhibition (%)” value ([10]; 1 μM WEL028, 1 h preincubation) was 4%, the “Inhibition at 1 µM (%)” value ([10]; 1 µM, LanthaScreen Binding, listed as WEL028, 1 µM) was 4% and the inhibition at 1 µM ([10]; read-out: Inhibition at 1 µM (%), 1 µM, LanthaScreen Binding) was 5%. For the same molecule, the IC80 ([11]; read-out: IC80-concentration (20% remaining activity)) was 27 nM, the Mode of action ([11]; recovery of WEL033 labeling after inhibitor at IC80) was “irreversible” and the Apparent fold selectivity [12] was 232 fold.
